Results published in PubChem BioAssay AID602296 (Broad Institute, 2012).
Inconclusive results are not listed. The source made the active and inactive calls.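 Rule for the calls: active = fitted activation curve crossing 40% at a concentration no higher than the sample's top valid tested dose; inconclusive = flat fitted curve at 30% to 70% activation, or poor curve fit; inactive = signal decrease, flat curve within 30%, or the rest.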

tested on: NIH3T3-HGL HSF-1 response element luciferase, 48 h; assay: HSF-1 reporter activators over prolonged exposure, confirmation, cell-based, mouse, luciferase, cherry-pick, dose (AID 602296);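 note: test compounds applied by themselves with no MG132 co-treatment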

Structure (SMILES)	AC40
O=C(/C=C/Sc1ccccc1)c1ccc(Cl)cc1	4.33 µM
CCCCN(CCCNC(=O)C1CCN(S(=O)(=O)CC)CC1)c1ccccc1	10.4 µM
Nc1nnc(CSCc2ccccc2Cl)s1	> 26 µM (inactive)
CCN(CC(=O)Nc1ccc(NC(C)=O)cc1)Cc1c(O)ccc2cc(Br)ccc12	25.2 µM
Cc1ccc(C(=O)NNC(=O)c2ccccc2-n2cccc2)cc1	> 26 µM (inactive)
Cc1cc(/C=C(/C#N)c2cccc(Cl)c2)c(C)n1C	> 26 µM (inactive)
N#CCCn1cc(C=C(C#N)C#N)c(-c2ccc(-c3ccccc3)cc2)n1	> 12 µM (inactive)
Cc1ccc(C(=O)CNc2ccc(Cl)cc2)cc1	> 26 µM (inactive)
CN(C)CCCn1c(N)c(C#N)c2nc(C#N)c(C#N)nc21	> 12 µM (inactive)
Cc1ccc2nc(SCC(=O)NCc3ccc(F)cc3)[nH]c2c1	> 26 µM (inactive)
CC(=O)N1N=C(c2ccccc2)CC1c1ccccc1[N+](=O)[O-] (stereo not drawn)	16 µM
O=C(NC1CCCCC1)C1CCCN1S(=O)(=O)c1cccc2nsnc12 (stereo not drawn)	> 26 µM (inactive)
Cc1ccc(O)c(NC(=O)c2onc(C)c2Cl)c1	> 26 µM (inactive)
CCOC(=O)C(CCOc1cccc(CC)c1)C(=O)OCC	> 26 µM (inactive)
ClC(Cl)c1nnc(-c2ccccc2)c(-c2c[nH]c3ccccc23)n1	> 26 µM (inactive)
CC1(C)Cc2c(C#N)c(N)n(-c3ccccc3)c(=S)c2CO1	> 26 µM (inactive)
CC1=Nc2cc(C(=O)O)ccc2Sc2c(C)ccc(C)c21	> 26 µM (inactive)
CC(/C=C/c1cccs1)=C\C(=O)O	> 26 µM (inactive)
O=C(Cc1c(O)c2ccccc2[nH]c1=O)NCc1ccccc1	> 26 µM (inactive)
CCCn1c(SCC(=O)c2cc(OC)ccc2OC)nnc1C(C)C	> 26 µM (inactive)
Cc1ccc(C(=O)Cn2nc(C(=O)O)c3ccccc3c2=O)cc1C	> 26 µM (inactive)
COC(=O)C1(O)CC(CC(C)C)=NN1C(=O)c1ccccc1 (stereo not drawn)	20.3 µM

Structure (SMILES)	AC40
CSc1ccccc1-n1nnnc1SCC(=O)NCc1cccs1	> 26 µM (inactive)
Cc1ccc2cccc(NC(=O)C(F)(F)F)c2n1	> 26 µM (inactive)
O=C(NC(CO)(CO)CO)c1coc(=O)c(Br)c1	> 26 µM (inactive)
CN1CCC(=NNc2ccc(S(=O)(=O)N3CCOCC3)cc2[N+](=O)[O-])CC1	> 26 µM (inactive)
C=CCN(C(=O)CCc1ccccc1OC)c1nc(-c2ccc(S(C)(=O)=O)cc2)cs1	> 26 µM (inactive)
COC(=O)c1nnn(CC(=O)NC(=O)Nc2ccc(F)cc2)c1C(=O)OC	> 26 µM (inactive)
COc1ccc(-n2cnnc2SCC(=O)N(C)C2CCS(=O)(=O)C2)cc1 (stereo not drawn)	> 26 µM (inactive)
CC(C)Nc1nc(Cl)nc(N(C#N)CN2C(=O)c3ccccc3C2=O)n1	> 26 µM (inactive)
CCCCC(=O)OCC(=O)c1[nH]c(C)c(C(=O)OCC)c1C	7.5 µM
C=CCN1C(=O)C(Cc2ccc(OCC)cc2)SC1=Nc1ccc(C(=O)O)cc1 (stereo not drawn)	> 26 µM (inactive)
Cc1ccccc1N1CCN(S(=O)(=O)Cc2ccccc2)CC1	> 26 µM (inactive)
Nc1ccc(Sc2cnn(-c3ccccc3)c(=O)c2Cl)cc1	8.39 µM
O=C(O)CSc1nc2ccccc2nc1Cc1ccccc1F	9.82 µM
CCOC(=O)N1CCC(NS(=O)(=O)c2ccc3c(c2)C(C)(C)C(=O)N3C)CC1	> 26 µM (inactive)
Cn1c(Cn2nnc3ccccc32)nnc1SCC(=O)c1ccccc1F	20.6 µM
Cc1nonc1OCCNCCNc1ccc([N+](=O)[O-])cc1Cl	> 26 µM (inactive)
O=C(N/N=C/c1ccc(-c2cccc([N+](=O)[O-])c2)o1)c1ccccc1O	> 26 µM (inactive)
Nc1cc(-c2ccco2)no1	> 26 µM (inactive)
COC(=O)c1ccc(OC(=O)CCN2C(=O)C3CCCCC3C2=O)cc1 (stereo not drawn)	> 26 µM (inactive)
CCCCOc1ccc(-c2nc(/C=N/c3nccs3)c(O)o2)cc1	18.4 µM
Cc1cc(C)cc(OCC(O)CN2C(=O)NC(C)(C)C2=O)c1 (stereo not drawn)	> 26 µM (inactive)
